The term pIC50 denotes the negative decadic logarithm of the IC50, by convention in mol/L. Read a high pIC50 as a low IC50.

pIC50: −log10 of the molar value.

This assay concerns the target T1, liver carnitine palmitoyl transferase 1 (L-CPT1) (Homo sapiens, UniProt P50416).
T1 construct: made in house; host or cells: Pichia pastoris strain X-33 (crude cell-free extract)
T1 sequence (P50416 1-773): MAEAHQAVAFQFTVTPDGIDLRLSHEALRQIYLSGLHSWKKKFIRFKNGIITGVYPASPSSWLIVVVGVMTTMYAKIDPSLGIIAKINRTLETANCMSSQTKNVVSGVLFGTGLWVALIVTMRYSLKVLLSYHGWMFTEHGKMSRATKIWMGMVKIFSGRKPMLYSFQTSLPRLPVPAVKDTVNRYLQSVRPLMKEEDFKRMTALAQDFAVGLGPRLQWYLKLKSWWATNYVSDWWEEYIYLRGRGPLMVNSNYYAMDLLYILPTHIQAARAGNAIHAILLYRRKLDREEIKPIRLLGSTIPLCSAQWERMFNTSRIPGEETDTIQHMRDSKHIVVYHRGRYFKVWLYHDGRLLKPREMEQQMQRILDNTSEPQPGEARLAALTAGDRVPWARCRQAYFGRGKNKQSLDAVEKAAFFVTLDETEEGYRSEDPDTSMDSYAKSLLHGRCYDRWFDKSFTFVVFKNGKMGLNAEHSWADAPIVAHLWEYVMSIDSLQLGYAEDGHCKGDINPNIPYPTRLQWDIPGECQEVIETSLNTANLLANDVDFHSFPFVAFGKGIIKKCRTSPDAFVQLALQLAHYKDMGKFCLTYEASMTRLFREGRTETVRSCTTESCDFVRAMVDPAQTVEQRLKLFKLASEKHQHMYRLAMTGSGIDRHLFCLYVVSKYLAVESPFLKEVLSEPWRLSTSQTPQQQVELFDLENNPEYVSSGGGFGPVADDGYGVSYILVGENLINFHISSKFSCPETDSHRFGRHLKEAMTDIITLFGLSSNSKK
The assay is described as follows: L-CPT1 inhibition, spectrophotometric CPT activity assay with DTNB (Ellman's reagent). Format: biochemical. Conditions: human liver CPT1 expressed in P. pastoris, cell extracts; carnitine 500 μM, palmitoyl-CoA 80 μM, DTNB 300 μM, pH 7.4. How it is done: The following tests were carried out in order to determine the activity of the compounds of the present invention. Background information on the performed assays can be found in: Jackson et al., 1999, Biochem. J. 341, 483-489 and Jackson et al., 2000, J. Biol. Chem. 275, 19560-19566.
Human liver and muscle CPT1 cDNAs and rat CPT2 cDNA were subcloned in pGAPZB or pGAPZA, respectively. These plasmids were used to transform P. pastoris strain X-33 via electroporation after the preparation of electrocompetent cells. High copy number clones were selected where necessary using 0.5 or 1 mg/ml Zeocin. Cultures for activity measurements were induced for 16 h in YPD medium (1% yeast extract, 2% peptone, 2% glucose). Crude cell extracts were prepared by disrupting the cells with glass beads or French Press, depending on fermenter sizes. After centrifugation, the cell-free extracts were resuspended in cell breaking buffer (50 mM Tris, pH7.4, 100 mM KCl, 1 mM EDTA) in the presence of a protease inhibitor cocktail, before aliquoting and freezing at −20° C.
CPT activity was measured using a spectrophotometric assay using 5,5′-dithio-bis-(2-nitrobenzoic acid) (DTNB) also called Ellman's reagent. The HS-CoA released on the formation of acylcarnitine from carnitine (500 μM) and palmitoyl-CoA (80 μM) reduced DTNB (300 μM) forming 5-mercapto-(2-nitrobenzoic acid) which absorbed at 410 nm with a molar extinction coefficient of 13600 M^−1cm^−1. The assay buffer contained 120 mM KCl, 25 mM Tris, pH 7.4, 1 mM EDTA. This assay was used for the identification of selective inhibitors of the liver CPT1 isoform versus the muscle CPT1 and CPT2 isoforms.
The compound `O=C(COc1ccccc1)N1CCCC[C@@H]1c1csc(-c2ccncc2)n1` [Example 32, 2-Phenoxy-1-[(R)-2-(2-pyridin-4-yl-thiazol-4-yl)-piperidin-1-yl]-ethanone] had a pIC50 of 6.82.
Next, `COc1ccc(-c2nc([C@H]3CCCCN3C(=O)COc3ccccc3)cs2)cn1` [Example 33, 1-{(R)-2-[2-(6-Methoxy-pyridin-3-yl)-thiazol-4-yl]-piperidin-1-yl}-2-phenoxy-ethanone]: 7.10; `O=C(COc1ccccc1)N1CCCC[C@@H]1c1csc(-c2ccccn2)n1` [Example 34, 2-Phenoxy-1-[(R)-2-(2-pyridin-2-yl-thiazol-4-yl)-piperidin-1-yl]-ethanone]: 6.76; `O=C(COc1ccccc1)N1CCCC[C@@H]1c1csc(-c2ccc(F)cc2)n1` [Example 35, 1-{(R)-2-[2-(4-Fluoro-phenyl)-thiazol-4-yl]-piperidin-1-yl}-2-phenoxy-ethanone]: 6.81.
Next, `COC(=O)c1ccc(-c2nc([C@H]3CCCCN3C(=O)COc3ccccc3)cs2)cc1` [Example 36, 4-{4-[(R)-1-(2-Phenoxy-acetyl)-piperidin-2-yl]-thiazol-2-yl}-benzoic acid methyl ester]: 6.44; `O=C(COc1ccccc1)N1CCCC[C@@H]1c1csc(Cc2ccc(Cl)cc2)n1` [Example 37, 1-{(R)-2-[2-(4-Chloro-benzyl)-thiazol-4-yl]-piperidin-1-yl}-2-phenoxy-ethanone]: 6.14.
With `O=C(COc1ccccc1)N1CCCC[C@@H]1c1csc(C2COc3ccccc3O2)n1` (stereo partly drawn) [Example 38, 1-{(R)-2-[2-(2,3-Dihydro-benzo[1,4]dioxin-2-yl)-thiazol-4-yl]-piperidin-1-yl}-2-phenoxy-ethanone] the figure was 6.40.
As to `O=C(O)c1cccc(-c2nc([C@H]3CCCCN3C(=O)COc3ccccc3)cs2)c1` [Example 40, 3-{4-[(R)-1-(2-Phenoxy-acetyl)-piperidin-2-yl]-thiazol-2-yl}-benzoic acid], the pIC50 is 7.10.
Next, `O=C(O)c1ccc(-c2nc([C@H]3CCCCN3C(=O)COc3ccccc3)cs2)cc1` [Example 41, 4-{4-[(R)-1-(2-Phenoxy-acetyl)-piperidin-2-yl]-thiazol-2-yl}-benzoic acid]: 6.53.
In turn, `O=C(O)c1cccc(-c2csc([C@H]3CCCCN3C(=O)COc3ccccc3)n2)n1` [Example 42, 6-{2-[(R)-1-(2-Phenoxy-acetyl)-piperidin-2-yl]-thiazol-4-yl}-pyridine-2-carboxylic acid] had a pIC50 of 7.42.
With `O=C(O)c1cccc(-c2csc([C@H]3CCCCN3C(=O)COc3ccccc3)n2)c1` [Example 44, Sodium; 3-{2-[(R)-1-(2-phenoxy-acetyl)-piperidin-2-yl]-thiazol-4-yl}-benzoate] the figure was 7.62.
For `COC(=O)c1cccc(-c2nc([C@H]3CCCCN3C(=O)COc3ccccc3)sc2C)c1` [Example 45, 3-{5-Methyl-2-[(R)-1-(2-phenoxy-acetyl)-piperidin-2-yl]-thiazol-4-yl}-benzoic acid methyl ester], the pIC50 was 6.52.
Next, `Cc1sc([C@H]2CCCCN2C(=O)COc2ccccc2)nc1-c1cccc(C(=O)O)c1` [Example 46, 3-{5-Methyl-2-[(R)-1-(2-phenoxy-acetyl)-piperidin-2-yl]-thiazol-4-yl}-benzoic acid]: 7.00.

(Values after patent publication US8039487B2, “Piperidine-amide derivatives” (Hoffmann-La Roche Inc., priority 2007, dated 2011).)
